Assay [1] concerns Enterobacter cloacae GN 5797. The experiment in a line: Induction of β-lactamase by β-lactam antibiotics. Format: cell-based. Particulars: for Specific activity (unit/mg protein): induced β-lactamase activity of crude enzyme, Concentration 10 µg/ml, Incubation time 3 hr, Substrate: 100 µM of cephaloridine. As for the experimental part: The assay method for induction of β-lactamase by β-latam antibiotics was as follows: The test organism, Enterobacter cloacae GN 5797, was grown overnight in Mueller Hinton broth (Dlfco Laboratories, Detroit, Mich.) at 37°C. The culture was diluted l0-fold into 20 ml of the flesh medium and incubated with shaking at 37°C. After 2 hours of incubation, antibiotics were added to final concentrations of 50 µg/ml, l0 µg/ml and l µg/ml, and the incubation was continued. At l hour intervals after the addition of antibiotic, 5 ml of sample was taken, and immediately added with 0.l ml of 50 mM sodium azide. The cells were harvested and washed with 50 mM phosphate buffer (pH 7.0). The cells were suspended in 5 ml of 50 mM phosphate buffer and disrupted with a sonicater in an ice-water bath. The broken cells were centrifuged at l6,500 G for 40 minutes at 4°C, and the resulting supernatant fluid was used as the crude enzyme. β-Lactamase activity was determined by a spectrophotometric method (Antmicrob. Agents Chemother. 17, 355-358, 1980) with cephaloridine as substrate. The concentration of protein was determined by the method of Lowry (J. Biol. Chem. 193, 265-275, 1951).

In another assay the test system is Ps.cepacia 23. The experiment in a line: In vitro antibacterial activity, agar plate dilution method (MIC). Format: cell-based, Pseudomonas cepacia. Particulars: Burkholderia cepacia, 23, 16 h, read-out: Minimum Inhibitory Concentration (MIC: µg/ml).
Another assay deals with Ps.maltophilia GN 12873. The assay is described as above. Format: cell-based, Pseudomonas maltophilia. Particulars: Stenotrophomonas maltophilia, GN12873, 16 h, read-out: Minimum Inhibitory Concentration (MIC: µg/ml).
For the next assay, the system named is E.coli CSH(RE45). The assay is described as above. Format: cell-based. Particulars: Escherichia coli, 16 h, read-out: Minimum Inhibitory Concentration (MIC: µg/ml).
A further assay relates to E.coli NIHJ JC2. Described as above. In kind it is cell-based. Particulars: Escherichia coli, NIHJJC2, 16 h, read-out: Minimum Inhibitory Concentration (MIC: µg/ml).
In a further assay the test system is S.marcescens IAM 1184. The assay is described as above. In kind it is cell-based. The settings on record: Serratia marcescens, IAM1184, 16 h, read-out: Minimum Inhibitory Concentration (MIC: µg/ml).
A further assay concerns Ps.aeruginosa IFO3445. The description is as above. Format: cell-based. Particulars: Pseudomonas aeruginosa, read-out: Minimum Inhibitory Concentration (MIC: µg/ml).
The next assay deals with E.coli CSH2 (RK1). The assay is described as above. In kind it is cell-based. Particulars: Escherichia coli, 16 h, read-out: Minimum Inhibitory Concentration (MIC: µg/ml).
The next assay has as its system S.aureus BB5703. The description is as above. Particulars: Staphylococcus aureus, BB5703, 16 h, read-out: Minimum Inhibitory Concentration (MIC: µg/ml). Format: cell-based.
In the next assay the test system is Ps.aeruginosa AKR17. The assay is described as above. Format: cell-based. Particulars: Pseudomonas aeruginosa, read-out: Minimum Inhibitory Concentration (MIC: µg/ml).
In the next assay the test system is P.vulgaris No. 33. The assay is described as above. Format: cell-based. Particulars: Proteus vulgaris, NO.33, 16 h, read-out: Minimum Inhibitory Concentration (MIC: µg/ml).
The subject of a further assay is Ps.aeruginosa AK 109. The assay is described as above. In kind it is cell-based. The settings on record: Pseudomonas aeruginosa, AK109, 16 h, read-out: Minimum Inhibitory Concentration (MIC: µg/ml).
The next assay deals with K.pneumoniae PCI-602. Described as above. Format: cell-based. The settings on record: Klebsiella pneumoniae, PCI602, 16 h, read-out: Minimum Inhibitory Concentration (MIC: µg/ml).
A further assay deals with E.cloacae Nek 39. The assay is described as above. Format: cell-based. Particulars: Enterobacter cloacae, NEK39, 16 h, read-out: Minimum Inhibitory Concentration (MIC: µg/ml).
In the next assay the test system is C.freundii GN346/16. The assay is described as above. In kind it is cell-based. Particulars: Citrobacter freundii, GN346, 16 h, read-out: Minimum Inhibitory Concentration (MIC: µg/ml).
Another assay deals with M.morganii GN5407. The assay is described as above. Format: cell-based. The settings on record: Morganella morganii, GN5407, 16 h, read-out: Minimum Inhibitory Concentration (MIC: µg/ml).
The next assay relates to P.vulgaris HX-19. The assay is described as above. Format: cell-based. Particulars: Proteus vulgaris, HX19, 16 h, read-out: Minimum Inhibitory Concentration (MIC: µg/ml).
The subject of another assay is K.pneumoniae No. 42. The assay is described as above. Format: cell-based. The settings on record: Klebsiella pneumoniae, NO.42, 16 h, read-out: Minimum Inhibitory Concentration (MIC: µg/ml).
Another assay relates to K.oxytoca GN10650. Described as above. The settings on record: Klebsiella oxytoca, GN10650, 16 h, read-out: Minimum Inhibitory Concentration (MIC: µg/ml). In kind it is cell-based.
For the next assay, the system named is E.coli GN5482. The description is as above. Format: cell-based. The settings on record: Escherichia coli, GN5482, 16 h, read-out: Minimum Inhibitory Concentration (MIC: µg/ml).
For a further assay, the system named is C.freundii GN346. The assay is described as above. In kind it is cell-based. Particulars: Citrobacter freundii, GN346, 16 h, read-out: Minimum Inhibitory Concentration (MIC: µg/ml).
The test system of another assay is S.epidermidis IAM12012. The assay is described as above. The settings on record: Staphylococcus epidermidis, IAM12012, 16 h, read-out: Minimum Inhibitory Concentration (MIC: µg/ml). In kind it is cell-based.
A further assay has as its system S.aureus JS1. Described as above. In kind it is cell-based. Particulars: Staphylococcus aureus, JS1, 16 h, read-out: Minimum Inhibitory Concentration (MIC: µg/ml).
In a further assay the test system is S.aureus 209P NIHJ-JC1. The description is as above. Particulars: Staphylococcus aureus, 16 h, read-out: Minimum Inhibitory Concentration (MIC: µg/ml). In kind it is cell-based.
The test system of another assay is E.cloacae 963. The description is as above. Format: cell-based. The settings on record: Enterobacter cloacae, 963, 16 h, read-out: Minimum Inhibitory Concentration (MIC: µg/ml).
A further assay deals with M.luteus ATCC9341. The assay is described as above. Format: cell-based. Particulars: Micrococcus luteus, ATCC9341, 16 h, read-out: Minimum Inhibitory Concentration (MIC: µg/ml).
For the next assay, the system named is A.calcoaceticus No. 4. The assay is described as above. Particulars: Acinetobacter calcoaceticus, NO.4, 16 h, read-out: Minimum Inhibitory Concentration (MIC: µg/ml). Format: cell-based.
The subject of a further assay is S.marcescens No. 16-2. Described as above. Format: cell-based. Particulars: Serratia marcescens, NO.162, 16 h, read-out: Minimum Inhibitory Concentration (MIC: µg/ml).

In brackets after ≈: the same amount, converted by molar mass. Read-outs that look alike come from different tables or passages of the source. Some results are limits rather than exact numbers.

With `CO[C@@]1(NC(=O)Cc2cccs2)C(=O)N2C(C(=O)O)=C(COC(N)=O)CS[C@@H]21` [Cefoxitin, reference compound], the “Specific activity (unit/mg protein)” value in [1] turned out to be 0.238 unit/mg protein.

For the compound `CC(C)(O/N=C(\C(=O)NC1C(=O)N2C(C(=O)[O-])=C(C[n+]3ccc4cc(O)c(O)cc4c3)CSC12)c1csc(N)n1)C(=O)O` (stereo not drawn) [Ex. 4, 7-[2-(2-aminothiazol-4-yl)-2-(l-carboxy-l-methylethoxyimino)acetamido]-3-(6,7-dihydroxy-2-isoquinolinio)methyl-3-cephem-4-carboxylate], the “Specific activity (unit/mg protein)” value in [1] came out at 0.064 unit/mg protein. Further, in assay [1] (measured by Enterobacter cloacae GN 5797), the β-lactamase inducibility entry was “no substantial β-lactamase-inducing activity was observed”. In addition, the MIC is less than 0.006 µg/mL with Ps.cepacia 23; 1.56 µg/mL (≈ 2.48 µM) in the assay on Ps.maltophilia GN 12873; 0.39 µg/mL (≈ 0.62 µM) in the assay on E.coli CSH(RE45); 0.1 µg/mL (≈ 0.159 µM) in the assay with E.coli NIHJ JC2; 0.0125 µg/mL (≈ 0.0199 µM) in the assay on S.marcescens IAM 1184; 0.2 µg/mL (≈ 0.318 µM) in the assay with Ps.aeruginosa IFO3445 (IFO3445, 16 h). The MIC in the assay on E.coli CSH2 (RK1) is less than 0.006 µg/mL; in the assay on S.aureus BB5703 it was 50 µg/mL (≈ 79.5 µM); in the assay with Ps.aeruginosa AKR17 (AKR17, 16 h), 0.78 µg/mL (≈ 1.24 µM); in the assay with P.vulgaris No. 33 it was 0.0125 µg/mL (≈ 0.0199 µM); in the assay on Ps.aeruginosa AK 109, 0.2 µg/mL (≈ 0.318 µM); in the assay on K.pneumoniae PCI-602 it was less than 0.006 µg/mL. In addition, the MIC with E.cloacae Nek 39 is 0.025 µg/mL (≈ 0.0398 µM); with C.freundii GN346/16 it was 1.56 µg/mL (≈ 2.48 µM); in the assay with M.morganii GN5407 it was 0.05 µg/mL (≈ 0.0795 µM); in the assay on P.vulgaris HX-19 it was less than 0.006 µg/mL; in the assay with K.pneumoniae No. 42 it was 0.025 µg/mL (≈ 0.0398 µM); with K.oxytoca GN10650 it was less than 0.006 µg/mL. The MIC with E.coli GN5482 turned out to be 0.39 µg/mL (≈ 0.62 µM); in the assay on C.freundii GN346 it was 50 µg/mL (≈ 79.5 µM); in the assay with S.epidermidis IAM12012, 12.5 µg/mL (≈ 19.9 µM); with S.aureus JS1 it was 100 µg/mL (≈ 159 µM); in the assay with S.aureus 209P NIHJ-JC1 it was 25 µg/mL (≈ 39.8 µM); in the assay with E.cloacae 963, 0.025 µg/mL (≈ 0.0398 µM). The MIC with M.luteus ATCC9341 was 6.25 µg/mL (≈ 9.94 µM); in the assay with A.calcoaceticus No. 4, 0.1 µg/mL (≈ 0.159 µM); in the assay with S.marcescens No. 16-2 it was 0.2 µg/mL (≈ 0.318 µM).

Turning to `CC(C)(O/N=C(\C(=O)N[C@@H]1C(=O)N2C(C(=O)[O-])=C(C[n+]3ccccc3)CS[C@H]12)c1csc(N)n1)C(=O)O` [Ceftazidime, reference compound], the MIC with Ps.cepacia 23 came to 1.56 µg/mL (≈ 2.85 µM); in the assay on Ps.maltophilia GN 12873, 100 µg/mL (≈ 183 µM); in the assay on E.coli CSH(RE45) it was 0.1 µg/mL (≈ 0.183 µM); in the assay with E.coli NIHJ JC2, 0.2 µg/mL (≈ 0.366 µM); with S.marcescens IAM 1184 it was 0.025 µg/mL (≈ 0.0457 µM); with Ps.aeruginosa IFO3445 (Ps.aeruginosa IFO3445, Mueller Hinton agar, inoculum 10⁶ CFU/ml, 37°C, 16 hours), 0.39 µg/mL (≈ 0.714 µM). In addition, the MIC with E.coli CSH2 (RK1) is 0.1 µg/mL (≈ 0.183 µM); in the assay with S.aureus BB5703 it was 25 µg/mL (≈ 45.7 µM); with Ps.aeruginosa AKR17 (Ps.aeruginosa AKR17, Mueller Hinton agar, inoculum 10⁶ CFU/ml, 37°C, 16 hours), more than 100 µg/mL; with P.vulgaris No. 33, 0.05 µg/mL (≈ 0.0915 µM); in the assay with Ps.aeruginosa AK 109 it was 1.56 µg/mL (≈ 2.85 µM); with K.pneumoniae PCI-602 it was 0.125 µg/mL (≈ 0.229 µM). In addition, the MIC with E.cloacae Nek 39 stood at 1.56 µg/mL (≈ 2.85 µM); with C.freundii GN346/16, 0.2 µg/mL (≈ 0.366 µM); with M.morganii GN5407, 0.1 µg/mL (≈ 0.183 µM); in the assay with P.vulgaris HX-19, 0.025 µg/mL (≈ 0.0457 µM); in the assay on K.pneumoniae No. 42, 0.39 µg/mL (≈ 0.714 µM); in the assay with K.oxytoca GN10650, 0.2 µg/mL (≈ 0.366 µM). Also, the MIC with E.coli GN5482 was 3.12 µg/mL (≈ 5.71 µM); in the assay on C.freundii GN346 it was 25 µg/mL (≈ 45.7 µM); in the assay with S.epidermidis IAM12012, 3.12 µg/mL (≈ 5.71 µM); in the assay with S.aureus JS1, 50 µg/mL (≈ 91.5 µM); with S.aureus 209P NIHJ-JC1, 6.25 µg/mL (≈ 11.4 µM); in the assay on E.cloacae 963 it was 0.2 µg/mL (≈ 0.366 µM). For the same compound, the figures for the MIC in the assay on M.luteus ATCC9341, in the assay with A.calcoaceticus No. 4 and in the assay with S.marcescens No. 16-2 were 1.56 µg/mL (≈ 2.85 µM), 6.25 µg/mL (≈ 11.4 µM) and 1.56 µg/mL (≈ 2.85 µM), respectively.

Source of the values: patent EP0238060B1, “Cephalosporin derivatives, processes for their preparation and antibacterial agents” (Banyu Pharmaceutical Co., Ltd., priority 1986, dated 1987).
